In patent US20190136254A1, “ALS Inhibitor Herbicide Tolerant Mutant Plants” (BASF SE, priority 2013, published 2019):

Key:
[1] = target: AHAS protein comprising both the P197S and W574L mutation in one ALS protein (Arabidopsis thaliana, UniProt P17597, P197S/W574L); assay type: biochemical; details: both mutations in one ALS protein; for Resistance Factor P197S-W574L (in one protein): relative to WT
Method: (§1) Bacteria are grown at 37° C. in LB-medium containing 100 mg/l carbenicillin and 25 mg/l canamycin, induced with 1 mM isopropyl-β-D-thiogalactopyranoside at an OD600 of 0.6, cultivated for 16 hours at 18° C. and harvested by, e.g., centrifugation. Bacterial pellets are resuspended in 100 mM sodium phosphate buffer pH 7.0 containing 0.1 mM thiamine-pyrophosphate, 1 mM MgCl2, and 1 μM FAD at a concentration of 1 gram wet weight per 25 ml of buffer and disrupted by, e.g., sonification. The crude protein extract obtained after centrifugation is used for ALS activity measurements.
(§2) ALS protein can be extracted from leaves or tissue cultures, such as B. napus or B. juncea leaves, or B. napus or B. juncea tissue cultures as described by Ray (Plant Physiol, 1984, 75:827-831). An ALS assays can be carried out in 96-well microtiter plates using a modification of the procedure described by Ray (1984): The reaction mixture contains 20 mM potassium phosphate buffer pH 7.0, 20 mM sodium pyruvate, 0.45 mM thiamine-pyrophosphate, 0.45 mM MgCl2, 9 μM FAD. ALS enzyme and various concentrations of ALS inhibitors can be mixed in a final volume of 90 μl. Assays can be initiated by adding enzyme and the assays can be terminated after 75 min incubation at 30° C. by the addition of 40 μl 0.5 M H2SO4.

[2] = target: AHAS protein WT (Arabidopsis thaliana, UniProt P17597); experiment: biochemical; details: for pI50 WT: AHAS WT
Method: as §1, §2

[3] = target: AHAS protein comprising the W574L mutation (Arabidopsis thaliana, UniProt P17597, W574L); experiment: biochemical; details: for Resistance Factor W574L: AHAS W574L relative to WT; for pI50 W574L: AHAS W574L
Method: as §1, §2

[4] = target: AHAS protein comprising the P197S mutation (Arabidopsis thaliana, UniProt P17597, P197S); experiment: biochemical; details: for Resistance Factor P197S: AHAS P197S relative to WT; for pI50 P197S: AHAS P197S
Method: as §1, §2

[5] = target: mixture of two ALS proteins, one comprising the P197S and the other the W574L mutation (Arabidopsis thaliana, UniProt P17597, P197S/W574L); experiment: biochemical; details: for Resistance Factor P197S & W574L (mixture): calculated mixture of two ALS proteins, relative to WT; for pI50 P197S & W574L (mixture): mixture of two ALS proteins, calculated as described in WO 2013/127766
[6] = tested on: oilseed rape homozygous for HETO133 and HETO134; experiment: Field test of visible phytotoxicity upon herbicide spraying, HETO133-HETO134; assay type: in vivo, Brassica napus; details: g ai/ha: imazamox 40, bispyribac-sodium 50, propoxycarbazone-sodium 70, mesosulfuron-methyl 60, pyroxsulam 12.5 + cloquintocet-mexyl 37.5, each + rapeseed oil methylated 366.5, 0%=no phytotoxic effects, 100%=all plants killed
Excerpt: (§3) Seeds of spring oilseed rape homozygous for HETO132 and HETO134, and seeds of spring oilseed rape homozygous for HETO133 and HETO 134 were sown in a field according to typical practical agricultural methods. Several ALS inhibitor herbicides were applied to the oilseed rape plants by using specific spray equipment for small plot applications. […] The use of all herbicides in the test lead to a clearly better tolerance of the spring oilseed rape lines homozygous for HETO132 and HETO134 as compared to a standard variety not comprising ALS alleles according to the invention.

[7] = tested on: wild-type (WT) oilseed rape; experiment: Field test of visible phytotoxicity upon herbicide spraying, wild-type; assay type: in vivo, Brassica napus; details: g ai/ha: imazamox 40, bispyribac-sodium 50, propoxycarbazone-sodium 70, mesosulfuron-methyl 60, pyroxsulam 12.5 + cloquintocet-mexyl 37.5, each + rapeseed oil methylated 366.5, 0%=no phytotoxic effects, 100%=all plants killed
Excerpt: as §3

[8] = tested on: oilseed rape homozygous for HETO132 and HETO134; experiment: Field test of visible phytotoxicity upon herbicide spraying, HETO132-HETO134; assay type: in vivo, Brassica napus; details: g ai/ha: imazamox 40, bispyribac-sodium 50, propoxycarbazone-sodium 70, mesosulfuron-methyl 60, pyroxsulam 12.5 + cloquintocet-mexyl 37.5, each + rapeseed oil methylated 366.5, 0%=no phytotoxic effects, 100%=all plants killed
Excerpt: as §3

AHAS protein comprising both the P197S and W574L mutation in one ALS protein, sequence (P17597 56-670 P197S/W574L): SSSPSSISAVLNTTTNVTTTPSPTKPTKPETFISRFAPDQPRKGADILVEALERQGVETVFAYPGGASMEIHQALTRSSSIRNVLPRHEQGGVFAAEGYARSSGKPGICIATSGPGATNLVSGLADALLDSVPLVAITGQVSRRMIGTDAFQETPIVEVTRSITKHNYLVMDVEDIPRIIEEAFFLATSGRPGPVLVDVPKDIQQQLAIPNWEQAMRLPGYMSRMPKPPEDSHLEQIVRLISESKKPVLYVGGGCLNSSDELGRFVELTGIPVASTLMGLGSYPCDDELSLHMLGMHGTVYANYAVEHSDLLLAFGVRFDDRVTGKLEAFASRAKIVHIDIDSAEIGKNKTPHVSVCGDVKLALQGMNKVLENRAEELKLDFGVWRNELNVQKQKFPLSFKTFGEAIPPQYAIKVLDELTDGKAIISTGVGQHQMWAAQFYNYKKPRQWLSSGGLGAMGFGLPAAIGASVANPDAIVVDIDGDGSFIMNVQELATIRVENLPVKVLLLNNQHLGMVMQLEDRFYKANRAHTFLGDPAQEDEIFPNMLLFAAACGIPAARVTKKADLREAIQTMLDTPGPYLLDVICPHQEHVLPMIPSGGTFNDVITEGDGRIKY
mixture of two ALS proteins, one comprising the P197S and the other the W574L mutation, sequence (P17597 56-670 P197S/W574L): as above
AHAS protein comprising the P197S mutation, sequence (P17597 56-670 P197S): as the sequence (P17597 56-670 P197S/W574L) above, with L519W counted along it
AHAS protein WT, sequence (P17597 56-670): as the sequence (P17597 56-670 P197S/W574L) above, with S142P, L519W counted along it
AHAS protein comprising the W574L mutation, sequence (P17597 56-670 W574L): as the sequence (P17597 56-670 P197S/W574L) above, with S142P counted along it

Row | Structure (SMILES) | pI50 P197S-W574L (in one protein) [1] | Resistance Factor P197S-W574L (in one protein) [1] | IC50 [2] | IC50 [3] | Resistance Factor W574L [3] | IC50 [4] | Resistance Factor P197S [4] | IC50 [5] | Resistance Factor P197S & W574L (mixture) [5] | further results
1 | COc1cc(OC)nc(NC(=O)NS(=O)(=O)N(C)S(C)(=O)=O)n1 [Amidosulfuron, amidosulfuron] | <4 | >488 | 0.2 µM | > 100 µM | >488 | > 100 µM | >488 | > 100 µM | >501 | –
2 | COCc1cnc(C2=NC(C)(C(C)C)C(=O)N2)c(C(=O)O)c1 (centres unmarked) [Imazamox, imazamox] | <4 | >22 | 3.98 µM | > 100 µM | >22 | 5.01 µM | 1 | 79.4 µM | 20 | Percentage phytotoxicity 9 DAA HETO133-HETO134 [6]: 6.7%; Percentage phytotoxicity 16 DAA HETO133-HETO134 [6]: 10%; Percentage phytotoxicity 24 DAA HETO133-HETO134 [6]: 0%; Percentage phytotoxicity 9 DAA wild-type [7]: 73.3%; Percentage phytotoxicity 16 DAA wild-type [7]: 98%; Percentage phytotoxicity 24 DAA wild-type [7]: 99%; Percentage phytotoxicity 9 DAA HETO132-HETO134 [8]: 6.7%; Percentage phytotoxicity 16 DAA HETO132-HETO134 [8]: 8.7%; Percentage phytotoxicity 24 DAA HETO132-HETO134 [8]: 0%
3 | COC(=O)c1ccc(C(F)(F)F)nc1S(=O)(=O)NC(=O)Nc1nc(OC)cc(OC)n1 [Flupyrsulfuron-methyl] | – | >47863 | – | – | – | – | – | – | – | –
4 | CCS(=O)(=O)c1nc2ccccn2c1S(=O)(=O)NC(=O)Nc1nc(OC)cc(OC)n1 [Sulfosulfuron, sulfosulfuron] | <4 | >4641 | 0.02 µM | > 100 µM | >4641 | 39.8 µM | 1848 | 251 µM | 10000 | –
5 | COc1cc(OC)n2nc(S(=O)(=O)Nc3c(Cl)ccc(C)c3Cl)nc2n1 [Metosulam, metosulam] | <4 | >28840 | 0.00316 µM | 20 µM | 5754 | 1.58 µM | 457 | 6.31 µM | 2512 | –
6 | COc1ncc(F)c2nc(S(=O)(=O)Nc3c(F)cccc3F)nn12 [Florasulam, florasulam] | <4 | >6918 | – | – | 1738 | – | 28 | – | 200 | pI50 WT [2]: 7.8; pI50 W574L [3]: 4.6; pI50 P197S [4]: 6.4; pI50 P197S & W574L (mixture) [5]: 5.5
7 | CCCOc1nn(C(=O)[N-]S(=O)(=O)c2ccccc2C(=O)OC)c(=O)n1C.[Na+] [Propoxycarbazone] | – | >4641 | – | – | 293 | – | 147 | – | 200 | –
8 | COc1cc(OC)n2nc(NS(=O)(=O)c3c(C(F)(F)F)ccnc3OC)nc2n1 [Pyroxsulam, pyroxsulam] | <4 | >41368 | – | – | >41368 | – | 261 | – | 6310 | pI50 WT [2]: 8.6; pI50 W574L [3]: <4; pI50 P197S [4]: 6.2; pI50 P197S & W574L (mixture) [5]: 4.8
9 | COC(=O)c1ccc(I)cc1S(=O)(=O)[N-]C(=O)Nc1nc(C)nc(OC)n1.[Na+] [Iodosulfuron-methy-sodium, iodosulfuron-methyl-sodium] | – | >35030 | – | – | 555 | – | 139 | – | 316 | –
10 | COc1cc(OC)nc(NC(=O)NS(=O)(=O)c2ncccc2C(F)(F)F)n1 [Flazasulfuron, flazasulfuron] | <4 | >120226 | 0.000794 µM | 3.16 µM | 3802 | 0.1 µM | 120 | 0.631 µM | 794 | –
11 | COC(=O)c1ccc(CNS(C)(=O)=O)cc1S(=O)(=O)NC(=O)Nc1nc(OC)cc(OC)n1 [Mesosulfuron-methyl, mesosulfuron-methyl] | – | >64730 | – | – | 25770 | – | 65 | – | 794 | –
12 | CCS(=O)(=O)c1cccnc1S(=O)(=O)NC(=O)Nc1nc(OC)cc(OC)n1 [Rimsulfuron, rimsulfuron] | <4 | >4466 | 0.02 µM | 10 µM | 447 | 0.398 µM | 18 | 2 µM | 63 | –
13 | COC(=O)c1csc(C)c1S(=O)(=O)NC(=O)n1nc(OC)n(C)c1=O [Thiencarbazone-methyl, thiencarbazone-methyl] | – | >7399 | – | – | 1173 | – | 1173 | – | 1259 | –
14 | COC(=O)c1sccc1S(=O)(=O)NC(=O)Nc1nc(C)nc(OC)n1 [Thifensulfuron-Methyl, thifensulfuron-methyl] | <4 | >2511 | 0.0398 µM | 63.1 µM | 1585 | 7.94 µM | 200 | 25.1 µM | 631 | –
15 | COc1cc(OC)nc(NC(=O)NS(=O)(=O)c2ncccc2C(=O)N(C)C)n1 [Nicosulfuron, nicosulfuron] | <4 | >607 | 0.158 µM | > 100 µM | >607 | 1 µM | 6 | 31.6 µM | 251 | –
16 | COC(=O)c1ccccc1S(=O)(=O)NC(=O)Nc1nc(C)nc(OC)n1 [Metsulfuron-methyl, metsulfuron-methyl] | – | >7547 | – | – | 755 | – | 38 | – | – | –
17 | CCCOc1nn(C(=O)[N-]S(=O)(=O)c2ccccc2C(=O)OC)c(=O)n1C.[Na+] [PROPOXYCARBAZONE-SODIUM, propoxycarbazone-sodium] | – | – | – | – | – | – | – | – | – | Percentage phytotoxicity 9 DAA HETO133-HETO134 [6]: 53.3%; Percentage phytotoxicity 16 DAA HETO133-HETO134 [6]: 82.7%; Percentage phytotoxicity 24 DAA HETO133-HETO134 [6]: 76.7%; Percentage phytotoxicity 9 DAA wild-type [7]: 76.7%; Percentage phytotoxicity 16 DAA wild-type [7]: 97%; Percentage phytotoxicity 24 DAA wild-type [7]: 97.7%; Percentage phytotoxicity 9 DAA HETO132-HETO134 [8]: 40%; Percentage phytotoxicity 16 DAA HETO132-HETO134 [8]: 36.7%; Percentage phytotoxicity 24 DAA HETO132-HETO134 [8]: 11.7%
